According to PMC6150173, “Tryptophan-Containing Cyclic Decapeptides with Activity against Plant Pathogenic Bacteria” (Molecules : A Journal of Synthetic Chemistry and Natural …, 2017):
Values joined by “and” are separate entries in the source; they are usually repeats but may differ in a detail not shown here. Equal values may be shown once. Peptide text beside a SMILES is read from it.

How the values were obtained:
Format in all cases: cell-based
[1] = tested on: Xanthomonas axonopodis pv. vesicatoria 2133-2; details: Table S1, MIC range
In short: (§1)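 MIC determined by in vitro growth inhibition across 0.8, 1.6, 3.1, 6.2, 12.5, 25 and 50 μM peptide. Strains tested: E. amylovora PMV6076, P. syringae pv. syringae EPS94 and X. axonopodis pv. vesicatoria 2133-2.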

[2] = tested on: Erwinia amylovora PMV6076; assay: Antibacterial activity (MIC), in vitro growth inhibition; details: Table S1, MIC range
In short: as §1

[3] = tested on: Pseudomonas syringae pv. syringae EPS94; assay: as above; details: Table S1, MIC range
In short: as §1

[4] = tested on: erythrocyte suspensions of human blood; assay: Hemolytic activity, hemoglobin release; details: human blood erythrocytes 5% v/v, absorbance 540 nm, percentage compared to melittin, three replicates; for Hemolysis (%) at 50 µM: peptide 50 μM (table prints 50 µM); for Hemolysis (%) at 125 µM: peptide 125 μM (table prints 125 µM)
Protocol: The hemolytic activity of the compounds was evaluated at 50 and 125 μM by determining hemoglobin release from erythrocyte suspensions of human blood (5% v/v) (Oxoid) using absorbance at 540 nm, as previously described. Three replicates for each peptide concentration were used.

Structure (SMILES) | MIC Xav [1] [µM] | MIC Ea [2] [µM] | MIC Pss [3] [µM] | Hemolysis (%) at 50 µM [4] [%] | Hemolysis (%) at 125 µM [4]
CC(C)C[C@@H]1NC(=O)[C@H](CCCCN)NC(=O)[C@H](CCCCN)NC(=O)[C@H](CCC(N)=O)NC(=O)[C@H](CC(C)C)NC(=O)[C@H](CCCCN)NC(=O)[C@H](CCCCN)NC(=O)[C@H](Cc2c[nH]c3ccccc23)NC(=O)[C@H](CCCCN)NC(=O)[C@H](CCCCN)NC1=O [BPC194W, c(KKLKKWKKLQ)] (cyclo(KKLKKWKKLQ)) | 6.2 to 12.5 | 12.5 to 25 | 12.5 to 25 | 3 | 5%
CC(C)C[C@@H]1NC(=O)[C@H](CCC(N)=O)NC(=O)[C@H](CC(C)C)NC(=O)[C@H](CC(C)C)NC(=O)[C@H](CCCCN)NC(=O)[C@H](Cc2c[nH]c3ccccc23)NC(=O)[C@H](CCCCN)NC(=O)[C@H](CCCCN)NC(=O)[C@H](CCCCN)NC(=O)[C@H](CCCCN)NC1=O [BPC068W, c(LKKKKWKLLQ)] (cyclo(KKKKWKLLQL)) | 1.6 to 3.1 | 25 to 50 | 6.2 to 12.5 | 6 | 7%
CC(C)C[C@@H]1NC(=O)[C@H](CCCCN)NC(=O)[C@H](CCCCN)NC(=O)[C@H](CCCCN)NC(=O)[C@H](CCC(N)=O)NC(=O)[C@H](CC(C)C)NC(=O)[C@H](CC(C)C)NC(=O)[C@H](CCCCN)NC(=O)[C@H](Cc2c[nH]c3ccccc23)NC(=O)[C@H](CCCCN)NC1=O [BPC062W, c(KKKLKWKLLQ)] (cyclo(KKKLKWKLLQ)) | 6.2 to 12.5 | 12.5 to 25 | 3.1 to 6.2 | 3 | 4%
CC(C)C[C@@H]1NC(=O)[C@H](CCC(N)=O)NC(=O)[C@H](CC(C)C)NC(=O)[C@H](CCCCN)NC(=O)[C@H](CC(C)C)NC(=O)[C@H](Cc2c[nH]c3ccccc23)NC(=O)[C@H](CCCCN)NC(=O)[C@H](CCCCN)NC(=O)[C@H](CCCCN)NC(=O)[C@H](CCCCN)NC1=O [BPC078W, c(LKKKKWLKLQ)] (cyclo(KKKKWLKLQL)) | 0.8 to 1.6 | 25 to 50 | 6.2 to 12.5 | 3 | 6%
CC(C)C[C@@H]1NC(=O)[C@H](CCCCN)NC(=O)[C@H](CCCCN)NC(=O)[C@H](Cc2c[nH]c3ccccc23)NC(=O)[C@H](CC(C)C)NC(=O)[C@H](CCCCN)NC(=O)[C@H](CCCCN)NC(=O)[C@H](CC(C)C)NC(=O)[C@H](CCCCN)NC(=O)[C@H](CCC(N)=O)NC1=O [BPC084W, c(KLKKLWKKLQ)] (cyclo(KKLQKLKKLW)) | 1.6 to 3.1 | 12.5 to 25 | 12.5 to 25 | 54 | 60%
CC(C)C[C@@H]1NC(=O)[C@H](CCCCN)NC(=O)[C@H](CCCCN)NC(=O)[C@H](Cc2c[nH]c3ccccc23)NC(=O)[C@H](CCCCN)NC(=O)[C@H](CC(C)C)NC(=O)[C@H](CC(C)C)NC(=O)[C@H](CC(C)C)NC(=O)[C@H](CCCCN)NC(=O)[C@H](CCC(N)=O)NC1=O [BPC184W, c(KLLLKWKKLQ)] (cyclo(KKLQKLLLKW)) | 1.6 to 3.1 | 25 to 50 | 3.1 to 6.2 | 22 | 32%
CC(C)C[C@@H]1NC(=O)[C@H](CCC(N)=O)NC(=O)[C@H](CCCCN)NC(=O)[C@H](CCCCN)NC(=O)[C@H](CC(C)C)NC(=O)[C@H](Cc2c[nH]c3ccccc23)NC(=O)[C@H](CCCCN)NC(=O)[C@H](CCCCN)NC(=O)[C@H](CCCCN)NC(=O)[C@H](CC(C)C)NC1=O [BPC146W, c(LLKKKWLKKQ)] (cyclo(KKKWLKKQLL)) | 3.1 to 6.2 | 25 to 50 | 3.1 to 6.2 | 4 | 7%
CC(C)C[C@@H]1NC(=O)[C@H](CCCCN)NC(=O)[C@H](Cc2c[nH]c3ccccc23)NC(=O)[C@H](CCCCN)NC(=O)[C@H](CCCCN)NC(=O)[C@H](CCCCN)NC(=O)[C@H](CC(C)C)NC(=O)[C@H](CC(C)C)NC(=O)[C@H](CCC(N)=O)NC(=O)[C@H](CCCCN)NC1=O [BPC126W, c(LLKKKWKLKQ)] (cyclo(KKKWKLKQLL)) | 1.6 to 3.1 | 25 to 50 | 6.2 to 12.5 | 5 | 9%
CC(C)C[C@@H]1NC(=O)[C@H](CCC(N)=O)NC(=O)[C@H](CCCCN)NC(=O)[C@H](CC(C)C)NC(=O)[C@H](CC(C)C)NC(=O)[C@H](Cc2c[nH]c3ccccc23)NC(=O)[C@H](CCCCN)NC(=O)[C@H](CCCCN)NC(=O)[C@H](CCCCN)NC(=O)[C@H](CCCCN)NC1=O [BPC108W, c(LKKKKWLLKQ)] (cyclo(KKKKWLLKQL)) | 1.6 to 3.1 | 6.2 to 12.5 | 1.6 to 3.1 | 4 | 5% and ≤ 8%
CC(C)C[C@@H]1NC(=O)[C@H](CCCCN)NC(=O)[C@H](CCCCN)NC(=O)[C@H](CCCCN)NC(=O)[C@H](CCCCN)NC(=O)[C@H](CCC(N)=O)NC(=O)[C@H](CC(C)C)NC(=O)[C@H](CC(C)C)NC(=O)[C@H](CCCCN)NC(=O)[C@H](Cc2c[nH]c3ccccc23)NC1=O [BPC060W, c(KKKKLWKLLQ)] (cyclo(KKKKLWKLLQ)) | 6.2 to 12.5 | 12.5 to 25 | 3.1 to 6.2 | 22 | 29%
CC(C)C[C@@H]1NC(=O)[C@H](CCCCN)NC(=O)[C@H](CC(C)C)NC(=O)[C@H](CCC(N)=O)NC(=O)[C@H](CC(C)C)NC(=O)[C@H](CCCCN)NC(=O)[C@H](CCCCN)NC(=O)[C@H](Cc2c[nH]c3ccccc23)NC(=O)[C@H](CCCCN)NC(=O)[C@H](CCCCN)NC1=O [BPC096W, c(LKLKKWKKLQ)] (cyclo(KKLQLKLKKW)) | 1.6 to 3.1 | 12.5 to 25 | 6.2 to 12.5 | 10 | 15%
CC(C)C[C@@H]1NC(=O)[C@H](CCCCN)NC(=O)[C@H](CC(C)C)NC(=O)[C@H](CCC(N)=O)NC(=O)[C@H](CCCCN)NC(=O)[C@H](CCCCN)NC(=O)[C@H](CC(C)C)NC(=O)[C@H](Cc2c[nH]c3ccccc23)NC(=O)[C@H](CCCCN)NC(=O)[C@H](CCCCN)NC1=O [BPC144W, c(LKLKKWLKKQ)] (cyclo(KKQLKLKKWL)) | 1.6 to 3.1 | 12.5 to 25 | 3.1 to 6.2 | 16 | 21%
CC(C)C[C@@H]1NC(=O)[C@H](CCCCN)NC(=O)[C@H](CCCCN)NC(=O)[C@H](Cc2c[nH]c3ccccc23)NC(=O)[C@H](CC(C)C)NC(=O)[C@H](CC(C)C)NC(=O)[C@H](CCCCN)NC(=O)[C@H](CCCCN)NC(=O)[C@H](CCCCN)NC(=O)[C@H](CCC(N)=O)NC1=O [BPC080W, c(KKKLLWKKLQ)] (cyclo(KKKLLWKKLQ)) | 0.8 to 1.6 | 12.5 to 25 | 6.2 to 12.5 | 3 | 4%
CC(C)C[C@@H]1NC(=O)[C@H](CCCCN)NC(=O)[C@H](CCCCN)NC(=O)[C@H](CCC(N)=O)NC(=O)[C@H](CCCCN)NC(=O)[C@H](CC(C)C)NC(=O)[C@H](CC(C)C)NC(=O)[C@H](Cc2c[nH]c3ccccc23)NC(=O)[C@H](CCCCN)NC(=O)[C@H](CCCCN)NC1=O [BPC104W, c(KKLKKWLLKQ)] (cyclo(KKLKKWLLKQ)) | 6.2 to 12.5 | 12.5 to 25 | 6.2 to 12.5 | 2 | 3%
CC(C)C[C@@H]1NC(=O)[C@H](CCCCN)NC(=O)[C@H](CC(C)C)NC(=O)[C@H](CCCCN)NC(=O)[C@H](CCC(N)=O)NC(=O)[C@H](CCCCN)NC(=O)[C@H](CCCCN)NC(=O)[C@H](CC(C)C)NC(=O)[C@H](Cc2c[nH]c3ccccc23)NC(=O)[C@H](CCCCN)NC1=O [BPC138W, c(KLKLKWLKKQ)] (cyclo(KKQKLKLKWL)) | 3.1 to 6.2 | 25 to 50 | 6.2 to 12.5 | 7 | 14%
